Like-named read-outs stand apart in the source and are kept apart here.
Key:
PECPS = assay: Standard PECPS enzyme reaction, acceptance of starter-CoA; assay type: biochemical, Aquilaria sinensis; conditions: condensation with 4-hydroxyphenylpropionyl-β-diketide acid
Method: The standard reaction mixture contained 26 nmol of starter-CoA (4-hydroxyphenylpropionyl-CoA/benzoyl-CoA/phenylpropionyl-CoA/2-hydroxybenzoyl-CoA/3-hydroxybenzoyl-CoA/4-hydroxybenzoyl-CoA), 29 nmol of malonyl-CoA/benzoyl-β-diketide acid/4-hydroxyphenylpropionyl-β-diketide acid (note: before β-diketide acids were added to the reaction buffer, they were first dissolved in dimethyl sulfoxide to a final concentration of 2.9 mM), and 0.4 nmol of the purified recombinant enzyme, in 100 mM KPB (pH 7.5) for a final volume of 500 μL. Incubations were performed at 37 °C for 12 h and terminated by the addition of 20 μL of 20% HCl. The reaction solution was then extracted three times with 800 μL of ethyl acetate. The organic layers were combined, evaporated to dryness with nitrogen, and dissolved in 50 μL of MeOH for LCMS-IT-TOF (Shimadzu, Japan) analysis. The HPLC was equipped with an Agilent Eclipse XDB C18 column (250 × 4.6 mm I.D., 5 μm) and eluted at a flow rate of 1.0 mL/min. For the standard assay, gradient elution was performed with H2O and acetonitrile: 0–10 min, 30% acetonitrile; 10–20 min, 30–60% acetonitrile; 20–25 min, 60–70% acetonitrile; 25–30 min, 70–80% acetonitrile; 30–35 min, 80–100% acetonitrile; 35–40 min, 100% acetonitrile.

wild type PECPS = wild type PECPS (Aquilaria sinensis, UniProt A0A385MEG6); assay: ITC binding to wild type PECPS; conditions: ITC, 100 mM KPB pH 7.5, 37 °C, mean ± SD (n = 3)
Chain of wild type PECPS (A0A385MEG6 entry or part of it): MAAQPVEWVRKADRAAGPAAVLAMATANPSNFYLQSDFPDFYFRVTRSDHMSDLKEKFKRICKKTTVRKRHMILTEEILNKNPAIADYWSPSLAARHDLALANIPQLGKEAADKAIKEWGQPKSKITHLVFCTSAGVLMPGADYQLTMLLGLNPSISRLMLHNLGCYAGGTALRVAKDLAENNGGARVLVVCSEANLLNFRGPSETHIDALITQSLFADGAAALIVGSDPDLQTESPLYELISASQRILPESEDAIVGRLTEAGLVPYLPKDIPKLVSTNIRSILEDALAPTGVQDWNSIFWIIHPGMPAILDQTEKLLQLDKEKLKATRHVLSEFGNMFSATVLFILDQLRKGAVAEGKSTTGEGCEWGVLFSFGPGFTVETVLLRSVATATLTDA
Method: ITC measurements of affinity (KD), stoichiometry (n) and apparent enthalpy change (ΔH°) were obtained using a Nano LV ITC calorimeter (TA Instruments). Samples for cell and injectant solutions were prepared in the same buffer (100 mM KPB, pH 7.5). All experiments were conducted at 37 °C with a stirring speed of 240 rpm and a sequence of 20 injections of 2.5 μL and 380 s delays between succeeding injections. The sample cell was filled with 47–85 μM protein solution (300 μl), while 1.09 mM 4-hydroxyphenylpropionyl-CoA (or 1.15 mM benzoyl-CoA) solution was placed in the syringe. The resulting data were processed with the standard NanoAnalyze software package (version 3.11.0), assuming the model of one type of binding site with an apparent stoichiometry close to 1:1. The first injection resulting in a heat change was disregarded in the later analysis. Titration experiments were performed in triplicate to show reproducibility. Control experiments confirmed that the heats of dilution caused by the reactant being titrated into buffer and the buffer into protein solution were negligible. The heats of dilution for the sample in the cell were subtracted from the final trace before integration with respect to time. The thermodynamic data obtained from the traces were averaged across three runs, and a standard deviation was calculated. Representative ITC thermograms and isotherm plots for experiments can be found in Supplementary Fig. 35.

[1] = tested on: wild type N. benthamiana leaves; assay: Infiltration of C6-C5-C6 substrates into wild type N. benthamiana leaves, LC-MS; assay type: in vivo, Nicotiana benthamiana
[2] = tested on: PECPS protein expression in A. sinensis calli; conditions: 150 mM NaCl-treated calli
Method: GAPDH was used as internal reference. d Western blot quantification of the relative expression levels of PECPS by ImageJ and normalization to the protein levels of GAPDH. Data represent the mean ± SD (n = 3). Statistical analysis was performed with unpaired two-tailed Student’s t-tests. Significance is shown with asterisks: ****p < 0.0001, ***p < 0.001, **p < 0.01. Exact p-values and source data are provided in the source data file. Total protein was extracted from 100 mg of calli using Plant Total Protein Extraction Reagent (Invent, USA) according to the manufacturer’s instructions. The protein expression levels of PECPS were analyzed by Western blotting with an anti-PECPS antibody prepared in rabbits.

[3] = tested on: PECPS expression in A. sinensis calli; conditions: NaCl-treated calli
Method: Considering that PECs contain a phenylethyl moiety, 4-hydroxyphenylpropionyl-CoA, rather than p-coumaroyl-CoA, was deliberately selected as the starter substrate for the reaction with malonyl-CoA, a canonical chain extender for PKSs, and the recombinant PECPS. […] The construction of a C6–C5–C6 scaffold by coincubation of benzoyl-CoA, malonyl-CoA, and 4-hydroxyphenylpropionyl-CoA was attempted.

[4] = Non-enzymatic conversion of oxidoagarochromone C in aqueous methanol, HPLC; assay type: physicochemical; conditions: methanol aqueous solution, room temperature
Method: Figure 19. […]
HPLC chromatograms were recorded on an Agilent ZORBAXSB C18 column (250 mm × 4.6 mm, I.D., 5 μm) eluted with H2O and acetonitrile in an isocratic mode (0–30 min, 30% acetonitrile; flow rate 1.0 mL/min). Oxidoagarochromone C (S) was dissolved in 50% aqueous methanol and kept at room temperature. ATC-type PECs (1–5) converted from the substrate (S) via the non-enzymatic opening of the epoxy rings were readily apparent at 12 h and 36 h. Given that the structures of compounds 1-5 were tentatively identified by HRESI MS, the presence of methyl groups in compounds 2 and 5 is also possible on other hydroxyl groups formed by the opening of the epoxy rings, and the structures of 3 and 4 may be […]

[5] = tested on: NaCl-stressed A. sinensis cells; assay: Substrate feeding to NaCl-stressed A. sinensis suspension cells, LC-MS; assay type: cell-based, Aquilaria sinensis; conditions: NaCl-stressed A. sinensis cells fed with substrate
Method: To verify the aforementioned hypothesis that diarylpentanoid is the common precursor of PECs, substrate-feeding experiments were performed. First, a putative innate-substrate, 5-(4-hydroxyphenyl)-1-phenylpentane-1,3-dione (2), was fed to NaCl-stressed A. sinensis cells, and its metabolites were carefully analyzed by LC–MS. […] Next, the fluorine-containing nonphysiological substrate 5-(4-F-phenyl)-1-phenylpentane-1,3-dione (F-2) was fed to NaCl-stressed A. sinensis cells. As a result, 10 fluorinated PECs (C01–C10) were successfully obtained by LC–MS guided separation and purification (Fig. 2b and Supplementary Fig. 8), and the structures of C01–C06 were unequivocally determined by extensive spectroscopic techniques, including ^1H-NMR, ^13C-NMR and HRESI-MS (Supplementary Figs. 9–14 and Supplementary Tables 2 and 3). Unfortunately, attempts to elucidate the structures of compounds C07–C10 by NMR techniques were complicated by their small yields. […]
Robustly growing suspension cells (200 mL × 10) were treated with NaCl (final concentration 150 mM) and immediately fed the fluorine-labeled substrate F-2 (20 mg × 10). […] Fluorinated PECs could be detected from the crude residue by LC–MS (Supplementary Fig. 8). […]

[6] = biological target: 2-(2-phenylethyl)chromone precursor synthase (PECPS), wild type, recombinant (Aquilaria sinensis); assay: SEC; purified recombinant PECPS; approximately 86 kDa against a calculated 43 kDa for the monomer (Supplementary Fig. 4b); column and buffer of this run not told

With CC(C)(COP(=O)(O)OP(=O)(O)OC[C@H]1O[C@@H](n2cnc3c(N)ncnc32)[C@H](O)[C@@H]1OP(=O)(O)O)[C@@H](O)C(=O)NCCC(=O)NCCSC(=O)c1ccccc1O [2-hydroxybenzoyl-CoA] the “acceptance as starter by PECPS to produce the C6–C5–C6 scaffold” value (PECPS) was “not accepted”.

Work on CC(C)(COP(=O)(O)OP(=O)(O)OC[C@H]1O[C@@H](n2cnc3c(N)ncnc32)[C@H](O)[C@@H]1OP(=O)(O)O)[C@@H](O)C(=O)NCCC(=O)NCCSC(=O)c1ccccc1 [benzoyl-CoA] yielded a Kd (wild type PECPS) of about 1 mM.

In the case of O=C(CCc1ccccc1)CC(=O)c1ccccc1 [1,5-diphenylpentane-1,3-dione], the “biotransformation in wild type N. benthamiana leaves” value [1] is reported as “converted to PECs”.

With CC(C)(COP(=O)(O)OP(=O)(O)OC[C@H]1O[C@@H](n2cnc3c(N)ncnc32)[C@H](O)[C@@H]1OP(=O)(O)O)[C@@H](O)C(=O)NCCC(=O)NCCSC(=O)c1cccc(O)c1 [3-hydroxybenzoyl-CoA] the “acceptance as starter by PECPS to produce the C6–C5–C6 scaffold” value (PECPS) was “could accept”.

With [Cl-].[Na+] [NaCl] the “Relative expression level of PECPS protein (PECPS/GAPDH), Mean” value ([2]; 0 h) was 0.2667, the “Relative expression level of PECPS protein (PECPS/GAPDH), Mean” value ([2]; 24 h) was 0.4551 and the “Relative expression level of PECPS protein (PECPS/GAPDH), Mean” value ([2]; 48 h) was 1.257. For the same molecule, the “Relative expression level of PECPS protein (PECPS/GAPDH), Mean” value ([2]; 72 h) was 1.846, the “Relative expression level of PECPS protein (PECPS/GAPDH), Mean” value ([2]; 96 h) was 1.18 and the “Relative expression level of PECPS (qRT-PCR), Mean” value ([3]; 0 h) was 0.3162. For the same molecule, the “Relative expression level of PECPS (qRT-PCR), Mean” value ([3]; 24 h) was 0.7432, the “Relative expression level of PECPS (qRT-PCR), Mean” value ([3]; 48 h) was 2.33 and the “Relative expression level of PECPS (qRT-PCR), Mean” value ([3]; 72 h) was 6.264. For the same molecule, the “Relative expression level of PECPS (qRT-PCR), Mean” value ([3]; 96 h) was 1.556.

In the case of oxidoagarochromone C, the “products from the opening of the epoxy ring (non-enzymatic conversion to ATC-type PECs)” value [4] is reported as “readily detected”.

With CC(C)(COP(=O)(O)OP(=O)(O)OC[C@H]1O[C@@H](n2cnc3c(N)ncnc32)[C@H](O)[C@@H]1OP(=O)(O)O)[C@@H](O)C(=O)NCCC(=O)NCCSC(=O)c1ccc(O)cc1 [4-hydroxybenzoyl-CoA] the “acceptance as starter by PECPS to produce the C6–C5–C6 scaffold” value (PECPS) was “could accept”.

With O=C(CCc1ccc(O)cc1)CC(=O)c1ccccc1 [compound 2, 5-(4-hydroxyphenyl)-1-phenylpentane-1,3-dione] the “biotransformation in wild type N. benthamiana leaves” value [1] was “converted to PECs” and the “accumulation of PECs (P1–P5) in substrate-fed cells” value [5] was “visibly increased”.

Work on “2-(2-phenylethyl)chromone precursor synthase (PECPS), wild type, recombinant (enzyme)” yielded a stoichiometry N [6] of 2.

Source: article PMC8764113 (Nature Communications, 2022)
